Measured values: US9771336B2, “Tetrazole based corrosion inhibitors” (Ecolab USA Inc., priority 2013, dated 2017)
Read-outs that look alike come from different tables or passages of the source. Blank lines part the entries; values can stand above or below the molecule they belong to.

Assays:
[1] = Copper corrosion rate with and without bleach in a cooling water environment
[2] = Solubility (turbidity) of 2% solutions at various pH; assay type: physicochemical; conditions: 2% solution in RO water
Pimephales promelas = Pimephales promelas 96-Hour Definitive Toxicity Test; assay type: in vivo; conditions: 96-hour test
Description: (§1) A composition of the invention including a BDTZ tetrazole component was evaluated using the Pimephales promelas 96-Hour Definitive Toxicity Test. Pimephales promelas used to initiate this test were obtained from in-house cultures and were 1 to 14 days old at test initiation. Test organisms were maintained in 100 percent control water (reconstituted moderately hard water) prior to test initiation. The 96-Hour Definitive Test was conducted using 300 to 500 milliliter (mL) disposable polypropylene containers containing 250 ml of control water or appropriate test solution. Ten test organisms were randomly introduced into each test chamber with two replicate chambers per treatment. Each Pimephales promelas test chamber was fed 0.1 mL of a concentrated suspension of less than 24-hour old live brine shrimp nauplii (Artemia sp.) several hours prior to the 48-hour testing period.
(§2) At the 48-hour testing period, test solutions were renewed by replacing approximately 90 percent of the old solution with fresh control water or appropriate test solution. Prior to renewal of test solutions, uneaten and dead brine shrimp, along with other debris, were removed from the bottom of the test chambers. Organism survival was determined daily by enumerating live Pimephales promelas in each test chamber. Survival was defined as any body movement after gentle prodding.
(§3) The test was conducted at a temperature of 20±1° C. under fluorescent lighting with a photoperiod of 16 hours light and 8 hours dark. Water quality measurements were performed on all control and test solutions prior to test initiation and on selected treatments daily thereafter.
(§4) Following termination of the 96-Hour Definitive Test, No Observed Effect Concentration (NOEC) and a 96-hour LC50 with corresponding 95 percent confidence interval were calculated, where possible. The NOEC value was determined using the statistically appropriate method. The LC50 value estimate was determined by using one of the following statistical methods: graphical, Spearman-Karber, Trimmed Spearman-Karber, or Probit. The method selected for reporting test results was determined by the characteristics of the data; that is, the presence or absence of 0 and 100 percent mortality and the number of concentrations in which mortalities between 0 and 100 percent occurred. All statistical analyses were performed using the CETIS™ Version 1.8.5.4 software program.
(§5) The reference toxicant, sodium chloride, was used to monitor the sensitivity of the test organisms and the precision of the testing procedure. Acute reference toxicant tests are performed at least monthly and the resulting LC50 values are plotted to determine if the results are within prescribed limits.

[3] = as above; assay type: in vivo; conditions: Pimephales promelas, in vivo, other: waterborne exposure in test solution; composition of BDTZ
Description: as §1, §2, §3, §4, §5

[4] = 3 ppm inhibitor, synthetic cooling water, 38° C., three hours
[5] = Mild steel corrosion rate (interaction with Cu2+); conditions: FIG. 12; compared with no HDTZ
Text: Tetrazoles disclosed herein have a positive effect on mild steel corrosion. […] The proposed mechanism of action is suspected to be indirect: the likely interpretation is that HDTZ inactivates Cu^2+ in solution preventing the occurrence of galvanic cells on the coupon surface (lower corrosion rate), which could grow with time (stabilization of the corrosion rate).

[6] = average copper corrosion rate, inhibitor concentration 5 ppm, with bleach
[7] = average copper corrosion rate, inhibitor concentration 5 ppm, without bleach

Molecule: C(CCc1nnn[nH]1)Cc1nnn[nH]1 [BDTZ, 1,4-di(1H-tetrazol-5-yl)butane]
Corrosion Rate (mpy) with Bleach (1 FRC) [1, 6]: 0.0841 mpy
Corrosion Rate (mpy) without Bleach [1, 7]: 0.0088 mpy
pH above which the solution remained clear ([2]; turbidity meter): > 5.6
Survival (%) (Pimephales promelas; composition of BDTZ, 625 mg/L as nominal): 100%
Survival (%) (Pimephales promelas; composition of BDTZ, 1,250 mg/L as nominal): 100%
Survival (%) (Pimephales promelas; composition of BDTZ, 2,500 mg/L as nominal): 100%
Survival (%) (Pimephales promelas; composition of BDTZ, 5,000 mg/L as nominal): 100%
Survival (%) (Pimephales promelas; composition of BDTZ, 10,000 mg/L as nominal): 100%
NOEC (Pimephales promelas; composition of BDTZ): 10,000 mg/L
LC50 at 96 h [3]: > 10000 µg/mL

Molecule: hydrogenated tolyltriazole [HTT, reference compound]
Corrosion Rate (mpy) with Bleach (1 FRC) [1, 6]: 0.0187 mpy
Corrosion Rate (mpy) without Bleach [1, 7]: 0.0051 mpy

Molecule: C(CCCCc1nnn[nH]1)CCCc1nnn[nH]1 [ODTZ, 1,8-di(1H-tetrazol-5-yl)octane]
Corrosion Rate (mpy) with Bleach (1 FRC) [1]: 0.032 mpy
Corrosion Rate (mpy) without Bleach [1]: 0.026 mpy
% loss of inhibitor ([4]; 1 ppm ActiBrom): 0.0%
% loss of inhibitor ([4]; 1 ppm Bleach): 2.6%
% loss of inhibitor ([4]; 1 ppm STABREX): 1.6%
% loss of inhibitor ([4]; 5 ppm ActiBrom): 1.3%
% loss of inhibitor ([4]; 5 ppm Bleach): 2.6%
% loss of inhibitor ([4]; 5 ppm STABREX): 2.6%

melting point: 183.75 °C
Molecule: C(CCCc1nnn[nH]1)CCc1nnn[nH]1 [HDTZ, 1,6-di(1H-tetrazol-5-yl)hexane]
Corrosion Rate (mpy) with Bleach (1 FRC) [1, 6]: 0.0204 mpy
Corrosion Rate (mpy) without Bleach [1, 7]: 0.005 mpy
effect on mild steel corrosion rate [5]: stabilize the corrosion rate

Molecule: Cc1cc2nn[nH]c2cc1Cl [CITT, 5-methyl-6-chloro-1H-benzotriazole, reference compound]
Corrosion Rate (mpy) with Bleach (1 FRC) [1, 6]: 0.0057 mpy
Corrosion Rate (mpy) without Bleach [1, 7]: 0.0028 mpy

Molecule: C(CCc1nnn[nH]1)CCc1nnn[nH]1 [PeDTZ, 1,5-di(1H-tetrazol-5-yl)pentane]
Corrosion Rate (mpy) with Bleach (1 FRC) [1]: 0.145 mpy
Corrosion Rate (mpy) without Bleach [1]: 0.0012 mpy

Molecule: c1ccc2[nH]nnc2c1 [BZT, 1H-benzotriazole, reference compound]
Corrosion Rate (mpy) with Bleach (1 FRC) [1, 6]: 0.1386 mpy
Corrosion Rate (mpy) without Bleach [1, 7]: 0.0032 mpy

Molecule: Cc1ccc2[nH]nnc2c1 [TT, 5-methyl-1H-benzotriazole, reference compound]
Corrosion Rate (mpy) with Bleach (1 FRC) [1, 6]: 0.0995 mpy
Corrosion Rate (mpy) without Bleach [1, 7]: 0.0214 mpy
pH above which soluble [2]: above 11.5
pH to get a clear solution [2]: 12.0

melting point: 144.19 °C
Molecule: C(CCCc1nnn[nH]1)CCCc1nnn[nH]1 [HeDTZ, 1,7-di(1H-tetrazol-5-yl)heptane]
Corrosion Rate (mpy) with Bleach (1 FRC) [1, 6]: 0.027 mpy
Corrosion Rate (mpy) without Bleach [1, 7]: 0.009 mpy

Molecule: CCCCc1ccc2[nH]nnc2c1 [BBT, 5-butyl-1H-benzotriazole, reference compound]
Corrosion Rate (mpy) with Bleach (1 FRC) [1, 6]: 0.0189 mpy
Corrosion Rate (mpy) without Bleach [1, 7]: 0.0024 mpy
